Results as given in ChEMBL document CHEMBL1155791, “A novel Syk family kinase inhibitor: design, synthesis, and structure-activity relationship of 1,2,4-triazolo[4,3-c]pyrimidine and 1,2,4-triazolo[1,5-c]pyrimidine derivatives” (Bioorg Med Chem, 2008).
≈ marks a conversion by molar mass, not a printed value.

Legend:
[1] = molecular target: Tyrosine-protein kinase SYK (Homo sapiens, UniProt P43405)
[2] = test system: PBMC; assay: Suppression of IL2 production in human PBMC after 24 hrs by ELISA
[3] = molecular target: T1, Tyrosine-protein kinase ZAP-70 (Homo sapiens, UniProt P43403); assay: Inhibition of human ZAP70
T1 sequence (P43403 whole entry): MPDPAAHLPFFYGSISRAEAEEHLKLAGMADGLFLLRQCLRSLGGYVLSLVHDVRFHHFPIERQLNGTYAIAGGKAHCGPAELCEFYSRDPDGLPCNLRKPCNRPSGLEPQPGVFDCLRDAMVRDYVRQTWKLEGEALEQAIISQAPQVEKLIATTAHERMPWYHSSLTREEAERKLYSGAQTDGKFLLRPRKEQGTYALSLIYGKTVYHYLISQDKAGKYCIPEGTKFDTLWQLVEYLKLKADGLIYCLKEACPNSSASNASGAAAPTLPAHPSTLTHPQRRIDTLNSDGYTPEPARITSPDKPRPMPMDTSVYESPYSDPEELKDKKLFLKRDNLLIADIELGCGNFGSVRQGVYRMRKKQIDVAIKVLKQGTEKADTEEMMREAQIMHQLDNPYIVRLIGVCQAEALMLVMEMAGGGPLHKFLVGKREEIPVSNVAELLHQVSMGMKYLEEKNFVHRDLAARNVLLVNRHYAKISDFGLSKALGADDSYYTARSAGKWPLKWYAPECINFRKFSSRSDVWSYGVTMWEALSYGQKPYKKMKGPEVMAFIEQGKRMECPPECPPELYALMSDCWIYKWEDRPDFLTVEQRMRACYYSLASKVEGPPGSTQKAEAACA

[4] = Aqueous solubility of the compound; type: physicochemical; conditions: water
[5] = molecular target: Tyrosine-protein kinase Lck (Homo sapiens, UniProt P06239)
[6] = molecular target: Protein kinase C beta type (Homo sapiens, UniProt P05771)
[7] = test system: Blood; assay: Suppression of IL2 production in human whole blood after 24 hrs by ELISA

Chain of Tyrosine-protein kinase Lck (P06239 whole entry): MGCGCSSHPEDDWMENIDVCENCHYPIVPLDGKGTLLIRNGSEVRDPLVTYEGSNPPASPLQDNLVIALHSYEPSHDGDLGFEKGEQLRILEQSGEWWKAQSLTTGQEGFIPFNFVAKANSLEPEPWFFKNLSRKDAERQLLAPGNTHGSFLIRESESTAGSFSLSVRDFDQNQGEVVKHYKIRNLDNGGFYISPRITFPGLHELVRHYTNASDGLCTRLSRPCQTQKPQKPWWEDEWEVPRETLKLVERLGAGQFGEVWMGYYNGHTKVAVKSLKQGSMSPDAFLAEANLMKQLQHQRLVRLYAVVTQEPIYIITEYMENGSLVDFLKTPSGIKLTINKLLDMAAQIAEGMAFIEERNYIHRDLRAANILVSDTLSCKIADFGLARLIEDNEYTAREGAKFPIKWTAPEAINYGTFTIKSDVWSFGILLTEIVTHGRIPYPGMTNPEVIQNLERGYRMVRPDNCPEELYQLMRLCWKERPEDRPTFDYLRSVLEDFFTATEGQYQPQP
Chain of Protein kinase C beta type (P05771 whole entry): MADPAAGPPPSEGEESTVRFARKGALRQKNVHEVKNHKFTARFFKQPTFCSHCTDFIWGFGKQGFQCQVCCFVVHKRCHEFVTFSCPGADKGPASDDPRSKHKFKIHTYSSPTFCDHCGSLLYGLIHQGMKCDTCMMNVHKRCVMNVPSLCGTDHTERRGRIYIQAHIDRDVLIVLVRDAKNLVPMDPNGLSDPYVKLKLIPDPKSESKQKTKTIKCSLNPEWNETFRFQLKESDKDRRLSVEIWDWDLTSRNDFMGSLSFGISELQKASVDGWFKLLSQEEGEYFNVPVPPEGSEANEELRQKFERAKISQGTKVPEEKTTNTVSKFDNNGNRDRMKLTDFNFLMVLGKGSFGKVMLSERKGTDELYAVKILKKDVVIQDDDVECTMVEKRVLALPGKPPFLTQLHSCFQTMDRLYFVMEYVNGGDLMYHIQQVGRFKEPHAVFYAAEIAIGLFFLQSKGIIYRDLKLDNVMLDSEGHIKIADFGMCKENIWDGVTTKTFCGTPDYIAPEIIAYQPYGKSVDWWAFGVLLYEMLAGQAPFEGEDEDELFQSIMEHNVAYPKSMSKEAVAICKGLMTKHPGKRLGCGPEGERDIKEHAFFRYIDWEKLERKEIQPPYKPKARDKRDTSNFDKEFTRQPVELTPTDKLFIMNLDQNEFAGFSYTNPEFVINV

Compound: COc1cc(Nc2nc(NCCN)n3cnnc3c2C(N)=O)cc(OC)c1
- IC50 [1]: 9 nM

Compound: COc1cc(Nc2nc(NCCO)n3cnnc3c2C(N)=O)cc(OC)c1
- IC50 [1]: 6100 nM

Compound: COc1cc(Nc2nc(NCC(C)(C)N)n3cnnc3c2C(N)=O)cc(OC)c1
- IC50 [1]: 150 nM

Compound: COc1cc(Nc2nc(NCCCN)n3cnnc3c2C(N)=O)cc(OC)c1
- IC50 [1]: 7700 nM

Compound: COc1cc(Nc2nc(NCC(=O)OC(C)(C)C)n3cnnc3c2C(N)=O)cc(OC)c1
- IC50 [1]: 79100 nM

Compound: COc1cc(Nc2nc(N[C@H]3CCCC[C@H]3N)n3nc(-c4ccccc4Cl)nc3c2C(N)=O)cc(OC)c1 (relative stereo)
- IC50 [2]: 1760 nM
- IC50 [1]: 50 nM

Compound: COc1cc(Nc2nc(N[C@H]3CCCC[C@H]3N)n3ncnc3c2C(N)=O)cc(OC)c1 (relative stereo)
- IC50 [3]: 330 nM
- solubility [4]: 42 µg/mL (≈ 98.5 µM)
- IC50 [1]: 4 nM
- IC50 [5]: 590 nM
- IC50 [6]: 2660 nM

Compound: COc1cc(Nc2nc(N[C@H]3CCCC[C@H]3N)n3cnnc3c2C(N)=O)cc(OC)c1 (relative stereo)
- IC50 [3]: 120 nM
- solubility [4]: 351 µg/mL (≈ 823 µM)
- IC50 [1]: 9 nM
- IC50 [5]: 180 nM
- IC50 [6]: 680 nM

Compound: COc1cc(Nc2nc(N[C@H]3CCCC[C@H]3N)n3nc(-c4cccc(OC)c4)nc3c2C(N)=O)cc(OC)c1 (relative stereo)
- IC50 [1]: 120 nM

Compound: COc1cc(Nc2nc(N[C@H]3CCCC[C@H]3N)n3nc(-c4ccccc4)nc3c2C(N)=O)cc(OC)c1 (relative stereo)
- IC50 [2]: 210 nM
- IC50 [7]: 2000 nM
- solubility [4]: 1.2 µg/mL (≈ 2.39 µM)
- IC50 [1]: 83 nM

Compound: COc1cc(Nc2nc(N[C@H]3CCCC[C@H]3N)n3c(-c4ccccc4)nnc3c2C(N)=O)cc(OC)c1 (relative stereo)
- IC50 [1]: 15200 nM
